# According to patent US12552824B2, “C-mannoside compounds useful for the treatment of urinary tract infections” (GLAXOSMITHKLINE INTELLECTUAL PROPERTY DEVELOPMENT LIMITED, priority 2018, dated 2026):
# Biological target: T1, FimH (Escherichia coli, UniProt Q1R2J4)
# T1 construct: endogenous in cells; host or cells: E. coli UTI89 whole bacteria, agglutinating guinea pig red blood cells
# Type: cell-based
# Details: concentration reducing bacterial agglutination of guinea pig red blood cells by greater than 90%; UTI89 bacteria
# Experimental: Hemagglutination Inhibition Assay (HAI)
# The hemagglutination inhibition (HAI) assay was performed with UTI89 bacteria and guinea pig red blood cells, as previously described (S. J. Hultgren, W. R. Schwan, A. J. Schaeffer, J. L. Duncan Infect. Immun. 1986, 54, 613-620 and Jarvis, C.; Han, Z.; Kalas, V.; Klein, R.; Pinkner, J. S.; Ford, B.; Binkley, J.; Cusumano, C. K.; Cusumano, Z.; Mydock-McGrane, L.; Hultgren, S. J.; Janetka, J. W., ChemMedChem 2016, 11, 367-373).
# 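Note: concentration in nM.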
row,Structure (SMILES),HAI titer EC > 90
1,COc1cc(-c2ccc([C@@H](O)[C@H]3O[C@H](CO)[C@@H](O)[C@H](O)[C@@H]3O)c(C)c2)cc(F)c1C [Example 63],“++++” (<50 “++++”)
2,Cc1cc(-c2cc(F)cc(Cl)c2)ccc1[C@@H](O)[C@H]1O[C@H](CO)[C@@H](O)[C@H](O)[C@@H]1O [Example 22],“++++” (<50 “++++”)
3,Cc1cc(-c2cc(F)cc(N(C)C)c2)ccc1[C@@H](O)[C@H]1O[C@H](CO)[C@@H](O)[C@H](O)[C@@H]1O [Example 109],“++++” (<50 “++++”)
4,Cc1cc(-c2ccc(F)c(F)c2)ccc1[C@@H](O)[C@H]1O[C@H](CO)[C@@H](O)[C@H](O)[C@@H]1O [Example 23],“+++” (50-200 “+++”)
5,Cc1cc(-c2ccc(C(F)(F)F)cc2F)ccc1[C@@H](O)[C@H]1O[C@H](CO)[C@@H](O)[C@H](O)[C@@H]1O [Example 42],“+++” (50-200 “+++”)
6,Cc1cc(-c2cc(Cl)ccc2OC(C)C)ccc1[C@@H](O)[C@H]1O[C@H](CO)[C@@H](O)[C@H](O)[C@@H]1O [Example 10],“++++” (<50 “++++”)
7,Cc1cc(-c2cc(Cl)c(Cl)cc2O)ccc1[C@@H](O)[C@H]1O[C@H](CO)[C@@H](O)[C@H](O)[C@@H]1O [Example 19],“++++” (<50 “++++”)
8,Cc1ccc(-c2ccc([C@@H](O)[C@H]3O[C@H](CO)[C@@H](O)[C@H](O)[C@@H]3O)c(C)c2)cc1F [Example 57],“+++” (50-200 “+++”)
9,OC[C@H]1O[C@H]([C@H](O)c2ccc(-c3cc(F)c(F)c(F)c3)cc2C(F)(F)F)[C@@H](O)[C@@H](O)[C@@H]1O [Example 97],“++++” (<50 “++++”)
10,Cc1cc(-c2ccc(C3CC3)c(F)c2)ccc1[C@@H](O)[C@H]1O[C@H](CO)[C@@H](O)[C@H](O)[C@@H]1O [Example 38],“+++” (50-200 “+++”)
11,Cc1cc(-c2cc(F)cc(C3CC3)c2)ccc1[C@@H](O)[C@H]1O[C@H](CO)[C@@H](O)[C@H](O)[C@@H]1O [Example 62],“+++” (50-200 “+++”)
12,CCCc1c(F)cc(-c2ccc([C@@H](O)[C@H]3O[C@H](CO)[C@@H](O)[C@H](O)[C@@H]3O)c(C)c2)cc1F [Example 92],“++++” (<50 “++++”)
13,Cc1cc(F)cc(-c2ccc([C@@H](O)[C@H]3O[C@H](CO)[C@@H](O)[C@H](O)[C@@H]3O)c(C)c2)c1 [Example 60],“+++” (50-200 “+++”)
14,Cc1cc(-c2ccc(F)c(OC(F)(F)F)c2)ccc1[C@@H](O)[C@H]1O[C@H](CO)[C@@H](O)[C@H](O)[C@@H]1O [Example 31],“+++” (50-200 “+++”)
15,Cc1cc(-c2cc(OC(F)(F)F)ccc2F)ccc1[C@@H](O)[C@H]1O[C@H](CO)[C@@H](O)[C@H](O)[C@@H]1O [Example 43],“+++” (50-200 “+++”)
16,Cc1cc(-c2cccc(C(F)(F)F)c2)ccc1[C@@H](O)[C@H]1O[C@H](CO)[C@@H](O)[C@H](O)[C@@H]1O [Example 75],“+++” (50-200 “+++”)
17,Cc1cc(-c2cc(C)c(C)c(F)c2)ccc1[C@@H](O)[C@H]1O[C@H](CO)[C@@H](O)[C@H](O)[C@@H]1O [Example 84],“++++” (<50 “++++”)
18,Cc1cc(-c2cc(C)c(Cl)c(C)c2)ccc1[C@@H](O)[C@H]1O[C@H](CO)[C@@H](O)[C@H](O)[C@@H]1O [Example 12],“+++” (50-200 “+++”)
19,Cc1cc(-c2cc(Cl)cc(C(F)(F)F)c2)ccc1[C@@H](O)[C@H]1O[C@H](CO)[C@@H](O)[C@H](O)[C@@H]1O [Example 26],“++++” (<50 “++++”)
20,OC[C@H]1O[C@H]([C@H](O)c2c(F)cc(-c3cc(F)cc(F)c3)cc2Cl)[C@@H](O)[C@@H](O)[C@@H]1O [Example 52],“+++” (50-200 “+++”)
21,Cc1cc(-c2cccc(F)c2F)ccc1[C@@H](O)[C@H]1O[C@H](CO)[C@@H](O)[C@H](O)[C@@H]1O [Example 18],“+++” (50-200 “+++”)
22,Cc1cc(-c2cc(F)c(Cl)cc2F)ccc1[C@@H](O)[C@H]1O[C@H](CO)[C@@H](O)[C@H](O)[C@@H]1O [Example 47],“++++” (<50 “++++”)
23,OC[C@H]1O[C@H]([C@H](O)c2ccc(-c3cc(F)cc(C(F)(F)F)c3)cc2C(F)(F)F)[C@@H](O)[C@@H](O)[C@@H]1O [Example 59],“++++” (<50 “++++”)
24,Cc1cc(-c2ccc(Cl)cc2)ccc1[C@@H](O)[C@H]1O[C@H](CO)[C@@H](O)[C@H](O)[C@@H]1O [Example 99],“+++” (50-200 “+++”)

row,Structure (SMILES),HAI titer EC > 90
1,Cc1cc(-c2ccc([C@@H](O)[C@H]3O[C@H](CO)[C@@H](O)[C@H](O)[C@@H]3O)c(C)c2)c(F)cc1Cl [Example 40],“+++” (50-200 “+++”)
2,Cc1cc(-c2cc(Cl)c(C3CC3)cc2F)ccc1[C@@H](O)[C@H]1O[C@H](CO)[C@@H](O)[C@H](O)[C@@H]1O [Example 56],“+++” (50-200 “+++”)
3,CCOc1ccc(-c2ccc([C@@H](O)[C@H]3O[C@H](CO)[C@@H](O)[C@H](O)[C@@H]3O)c(C)c2)cc1F [Example 81],“++++” (<50 “++++”)
4,Cc1cc(-c2ccc([C@@H](O)[C@H]3O[C@H](CO)[C@@H](O)[C@H](O)[C@@H]3O)c(C)c2)cc(C(C)(C)C)c1 [Example 14],“+++” (50-200 “+++”)
5,Cc1cc(-c2cc(C)c(F)c(F)c2)ccc1[C@@H](O)[C@H]1O[C@H](CO)[C@@H](O)[C@H](O)[C@@H]1O [Example 88],“++++” (<50 “++++”)
6,Cc1cc(-c2cc(F)c(F)c(C(F)(F)F)c2)ccc1[C@@H](O)[C@H]1O[C@H](CO)[C@@H](O)[C@H](O)[C@@H]1O [Example 110],“++++” (<50 “++++”)
7,Cc1cc(-c2cc(C(F)F)cc(C(F)F)c2)ccc1[C@@H](O)[C@H]1O[C@H](CO)[C@@H](O)[C@H](O)[C@@H]1O [Example 86],“++++” (<50 “++++”)
8,Cc1cc(-c2ccc(C(F)(F)F)c(F)c2F)ccc1[C@@H](O)[C@H]1O[C@H](CO)[C@@H](O)[C@H](O)[C@@H]1O [Example 49],“+++” (50-200 “+++”)
9,COc1cc(-c2ccc([C@@H](O)[C@H]3O[C@H](CO)[C@@H](O)[C@H](O)[C@@H]3O)c(C)c2)ccc1C(F)(F)F [Example 76],“++++” (<50 “++++”)
10,Cc1cc(-c2cc(F)c(OC(F)F)c(F)c2)ccc1[C@@H](O)[C@H]1O[C@H](CO)[C@@H](O)[C@H](O)[C@@H]1O [Example 96],“++++” (<50 “++++”)
11,C#Cc1c(F)cc(-c2ccc([C@@H](O)[C@H]3O[C@H](CO)[C@@H](O)[C@H](O)[C@@H]3O)c(C)c2)cc1F [Example 103],“++++” (<50 “++++”)
12,Cc1cc(-c2cc(F)c(C3CC3)c(F)c2)ccc1[C@@H](O)[C@H]1O[C@H](CO)[C@@H](O)[C@H](O)[C@@H]1O [Example 53],“++++” (<50 “++++”)
13,Cc1cc(-c2ccc([C@@H](O)[C@H]3O[C@H](CO)[C@@H](O)[C@H](O)[C@@H]3O)c(C)c2)cc(C(F)(F)F)c1 [Example 68],“++++” (<50 “++++”)
14,COCc1c(F)cc(-c2ccc([C@@H](O)[C@H]3O[C@H](CO)[C@@H](O)[C@H](O)[C@@H]3O)c(C)c2)cc1F [Example 102],“++++” (<50 “++++”)
15,"Cc1cc(-c2cc(F)c(C(C)O)c(F)c2)ccc1[C@@H](O)[C@H]1O[C@H](CO)[C@@H](O)[C@H](O)[C@@H]1O (single isomer, unassigned) [Example 107]",“++++” (<50 “++++”)
16,Cc1cc(-c2cccc(F)c2)ccc1[C@@H](O)[C@H]1O[C@H](CO)[C@@H](O)[C@H](O)[C@@H]1O [Example 77],“+++” (50-200 “+++”)
17,Cc1cc(-c2cc(F)ccc2F)ccc1[C@@H](O)[C@H]1O[C@H](CO)[C@@H](O)[C@H](O)[C@@H]1O [Example 17],“+++” (50-200 “+++”)
18,Cc1cc(-c2ccc(F)cc2)ccc1[C@@H](O)[C@H]1O[C@H](CO)[C@@H](O)[C@H](O)[C@@H]1O [Example 98],“+++” (50-200 “+++”)
19,Cc1cc(-c2ccc(C(F)(F)F)cc2)ccc1[C@@H](O)[C@H]1O[C@H](CO)[C@@H](O)[C@H](O)[C@@H]1O [Example 105],“+++” (50-200 “+++”)
20,COc1cc(Cl)c(Cl)cc1-c1ccc([C@@H](O)[C@H]2O[C@H](CO)[C@@H](O)[C@H](O)[C@@H]2O)c(C)c1 [Example 20],“++++” (<50 “++++”)
21,Cc1cc(-c2ccc(C(F)(F)F)c(C(F)(F)F)c2)ccc1[C@@H](O)[C@H]1O[C@H](CO)[C@@H](O)[C@H](O)[C@@H]1O [Example 67],“++++” (<50 “++++”)
22,COc1c(F)cc(-c2ccc([C@@H](O)[C@H]3O[C@H](CO)[C@@H](O)[C@H](O)[C@@H]3O)c(C)c2)cc1Cl [Example 71],“++++” (<50 “++++”)
23,COc1cc(F)c(-c2ccc([C@@H](O)[C@H]3O[C@H](CO)[C@@H](O)[C@H](O)[C@@H]3O)c(C)c2)cc1F [Example 82],“++++” (<50 “++++”)
24,Cc1cc(-c2cc(F)cc(OC(F)(F)F)c2)ccc1[C@@H](O)[C@H]1O[C@H](CO)[C@@H](O)[C@H](O)[C@@H]1O [Example 36],“++++” (<50 “++++”)
